The subject of one data set is E. coli UTI89[pCOMGFP]. The experiment in a line: Biofilm pods / intracellular bacterial communities (IBC) in mouse bladders, confocal microscopy. The class given is in vivo, C3H/HeN mice. Here is the method: The experiment was performed using the procedures described in Justice, S. et al., Differentiation and development pathways of uropathogenic Escherichia coli in urinary tract pathogenesis.PNAS, 2004, 101(5), p. 1333-1338. Briefly, E. coli UTI89[pCOMGFP] was prepared after retrieval from frozen stocks by inoculating in LB medium statically for approximately 20 hours. Cells were harvested and suspended in 1 ml of PBS. Cells were diluted to achieve approximately a 10^8 CFU or 10^7 CFU input into C3H/HeN mice (2 mice per group).
Mice were deprived of water for approximately two hours. In experiment 1, all mice were anesthetized with 0.15 cc ketamine cocktail. In experiment 2, all mice were anesthetized with isofluorane. In experiment 1, urine was dispelled from the bladders and approximately 40 μg/ml of test compound or an appropriate amount of ethanol as control was introduced into the bladders via catheterization of the urethra using a tubing coated tuberculin syringe. 30 minutes was allowed to elapse. In experiment 2, bladders were not pre-incubated with test compounds. Bladders were then expelled and an inoculum of 10^8 CFU (Experiment 1) or 10^7 CFU (Experiment 2) of E. coli containing 40 μg/ml of test compound or equivalent amount of ethanol as controls were introduced into the bladders as indicated above.
In experiment 1 five hours elapsed and in experiment 2 six hours elapsed, and then mice were anesthetized and sacrificed. The bladders were removed, bisected, stretched, and fixed in 3% paraformaldehyde for 1 hour at room temperature. Bladders were then permeabilized in 0.01% Triton/PBS for 10 minutes and counter stained with TOPRO3 (Molecular Probes) for 10 minutes for visualization by confocal microscopy. Bladders were mounted on Prolong antifade (Molecular Probes).

Data set [1] concerns E. coli clinical strain UTI89. As to the kind of experiment: Biofilm formation inhibition, crystal violet, E. coli clinical strain UTI89. The class given is cell-based. The settings on record: Escherichia coli, read-out: inhibited biofilm formation as compared to the controls. How it is done: Biofilm inhibition experiments were conducted using an assay adapted from the reported protocol described in Pratt and Kolter, 1998, Molecular Microbiology, 30: 285-293; Li et al., 2001, J. Bacteriol., 183: 897-908. E. coli clinical strain UTI89 was grown in LB in 96 well plates at room temperature for one or two days without shaking. E. coli laboratory strain JM109 was grown in LB plus 0.2% glucose in 96 well plates at room temperature for one day without shaking. To quantify the biofilm mass, the suspension culture was poured out and the biofilm was washed three times with water. The biofilm was stained with 0.1% crystal violet for 20 minutes. The plates were then washed three times with water. OD reading at 540 nm was measured to quantify the biofilm mass at the bottom of the wells. Then 95% ethanol was added to dissolve the dye at the bottom and on the wall and the OD reading at 540 nm was measured to quantify the total biofilm mass. To study the overall effect of the compounds (3.6 mg/mL in 100% ethanol as stock solution), it was added with the inoculation and a time course of biofilm mass was measured. Appropriate amounts of 100% ethanol were added to each sample to eliminate the effect of solvent. Each condition had 3-4 replicates on each plate and was performed over multiple days.

The nature of data set [2]: Bladder concentrations in rats after oral dose. The settings on record: rat, in vivo, po, 50 mg/kg. How it is done: Pharmacokinetic studies of asiatic acid and madecassic acid in rats were performed separately. Asiatic acid and madecassic acid were evaluated at 50 mg/kg (oral). Two animals were assigned to each group. Prior to dosing, a baseline blood sample was taken from each animal. At time zero, asiatic acid and madecassic acid, a single bolus dose in 50% Labrasol (Gattefosse) was given to each animal. Bladders were analyzed at 24 hours. Concentrations of both asiatic acid and madecassic acid in the bladder were approximately 30 μg/g at 24 hours.

Data set [3] concerns P. aeruginosa (ATCC 27853). As to the kind of experiment: Antibacterial effect (NCCLS MIC). The class given is cell-based. To be noted: Pseudomonas aeruginosa, ATCC27853, studied at 64 μg/mL, read-out: MIC (minimal inhibitory concentration). Here is the method:
(§1) Using the appropriate NCCLS procedures, the antibacterial effect of asiatic acid on Haemophilus influenzae (ATCC 10211), E. coli (ATCC 25922), and P. aeruginosa (ATCC 27853) was studied at 64 μg/mL.

Data set [4] deals with Haemophilus influenzae (ATCC 10211). The experiment in a line: Antibacterial effect (NCCLS MIC). To be noted: ATCC10211, studied at 64 μg/mL, read-out: MIC (minimal inhibitory concentration). The class given is cell-based. Here is the method: as §1
In the next data set the test system is E. coli (ATCC 25922). As to the kind of experiment: Antibacterial effect (NCCLS MIC). The class given is cell-based. To be noted: Escherichia coli, ATCC25922, studied at 64 μg/mL, read-out: MIC (minimal inhibitory concentration). How it is done: as §1
The test system of another data set is S. sobrinus 6715. As to the kind of experiment: Biofilm growth inhibition in polycarbonate tubes. The class given is cell-based. To be noted: Streptococcus sobrinus, 40 μg/mL.

This is an account of results in patent publication US20060264411A1, “Control of biofilm formation” (priority 2005, published 2006).

With `C[C@H]1[C@H](C)CC[C@]2(C(=O)O)CC[C@]3(C)C(=CC[C@@H]4[C@@]5(C)C[C@@H](O)[C@H](O)[C@@](C)(CO)[C@@H]5CC[C@]43C)[C@H]12` [Asiatic acid, asiatic acid], in the data set on E. coli UTI89[pCOMGFP] (experiment 1: 40 μg/ml intravesical, 30 min pre-incubation, 10^8 CFU, five hours), the “reduction in biofilm pods or intracellular bacterial communities (IBC) in the bladders of mice as compared to the controls” value worked out at 77%. For the same molecule, the “reduction in large biofilm pods or large IBC in the bladders of mice as compared to the controls” value in the data set with E. coli UTI89[pCOMGFP] (experiment 2: 40 μg/ml with inoculum, no pre-incubation, 10^7 CFU, six hours) is recorded as roughly 60%. Moreover, the inhibition at 4 µg/mL in data set [1] (4 ug/ml) is roughly 10%. In data set [1] (8 ug/ml), the inhibition at 8 µg/mL was roughly 15%. Besides, the inhibition at 16 µg/mL in data set [1] (16 ug/ml) was roughly 50%. The inhibition at 32 µg/mL in data set [1] (32 ug/ml) was roughly 90%. In data set [2], the concentration at 24 h was roughly 30000 ng/g. The MIC (in data set [3]; in data set [4]; with E. coli (ATCC 25922)) was greater than 64 µg/mL each time. This molecule showed an inhibition at 40 µg/mL with S. sobrinus 6715 greater than 75%.
